Data: patent US12409154B2, “Pharmaceutical compositions for use in treating pain” (TAIWAN LIPOSOME COMPANY, LTD., priority 2019, dated 2025)

Tests used:
[1] = system: adult subjects following inguinal hernia repair surgery; assay: Phase I/II study, single infiltrative local administration after inguinal hernia repair surgery: efficacy (NPRS pain, rescue analgesic use); format: in vivo, human; details: TLC590 475 mg, ropivacaine group 150 mg
From the text: A Phase I/II, randomized, double-blind, comparator-controlled, dose-escalation study to assess the safety, PK, and efficacy of single postsurgical application of the anesthetic composition in accordance with the present disclosure (denoted as TLC590) compared with Naropin® via a single infiltrative local administration in adult subjects following inguinal hernia repair surgery. The study enrolled approximately 64 evaluable subjects who met all entry criteria across 4 cohorts. Dose escalation of a single postsurgical administration of TLC590 was performed using sequential dose levels, as compared with Naropin®. Dose-escalation were determined by review of […] (TEAEs) and all serious AEs (SAEs) by a safety monitoring committee (SMC). […] Pain intensity at rest and with movement assessed using an 11-point NPRS ranging from a score of 0 (no pain) to 10 (worst possible pain). • 2. […]

[2] = pKa of ropivacaine and calculated uncharged fraction; format: physicochemical; details: pH 6.0; calculated from pKa
Description: In some embodiments, the lipid-based complex of the anesthetic composition is formed by hydrating a lyophilized lipid cake with a pharmaceutically acceptable buffer solution at a pH higher than 5.5. […] In some embodiments, the lipid cake according to the present disclosure is prepared by dissolving apolar ropivacaine, phospholipid, and cholesterol in a solvent system, e.g., tert-butanol alone or a tert-butanol/water cosolvent, followed by removing the solvent system using a lyophilization technique.

theoretically uncharged ropivacaine, share of available ropivacaine [2]: 0.8%
SMILES: CCCN1CCCC[C@H]1C(=O)Nc1c(C)cccc1C [ropivacaine]
median time to first rescue analgesic [1]: 13 h | median time to first postsurgical opioid use ([1]; among those who used rescue opioid): 3.3 h
